# Reference: article PMC8408311 (Diabetologia, 2021)
# Read-outs that look alike come from different tables or passages of the source.
# What was measured:
# [1] = CADODIAME study, subclinical diabetic macular oedema; assay type: in vivo, human; details: 1000 mg twice per day, 1 year; SD 14
# [2] = Low dose gliclazide and sitagliptin crossover study, mixed meal test and CGM; assay type: in vivo, human; details: 2-hour MMT after 14 days
# male Wistar rats = assay: 30-min filament middle cerebral artery occlusion; assay type: in vivo, rat; details: 48 h after MCAO; healthy 18 points, maximal deficit 3 points
# HFD C57BL/6J mice = assay: obesity-induced cardiac dysfunction, high-fat diet mice; assay type: in vivo; details: 10 mg/kg/day intragastric for 8 weeks
# [3] = 3-year prospective observational study of quadruple oral therapy in T2DM; assay type: in vivo, human; details: empagliflozin 25 mg/day, dapagliflozin 10 mg/day
# [4] = Swedish registry cohorts, causal random forest, change after 6 months versus SU; assay type: in vivo, human; details: after 6 months treatment
# [5] = single dose 50 mg
# [6] = SUSTAIN 10 post hoc analysis by baseline SGLT-2i; assay type: in vivo, human
# [7] = Liraglutide crossover trial, Holter monitoring and echocardiography; assay type: in vivo, human; details: 12 weeks
# [8] = system: patients with type 2 diabetes at CV risk; assay: PIONEER 6, treatment discontinuation; parameters: species or system human; details: in vivo
# [9] = Insulin icodec titration trial, CGM hypoglycaemia duration, insulin-naive T2D; assay type: in vivo, human
# [10] = assay type: in vivo, human
# [11] = system: insulin-naive patients with type 2 diabetes; assay: Icodec phase 2 titration trial, CGM post hoc; assay type: in vivo, human; details: titration B, weeks 15&16
# [12] = system: human hTERT-immortalized adipose tissue-derived MSCs; assay: PPARG splicing in adipose tissue-derived MSCs treated with recombinant cytokines; assay type: cell-based
# [13] = system: mouse pancreatic beta cells; assay: PKA activation; assay type: cell-based; details: only effective from
# Arrb2-/- beta cells = assay: Incretin responses in Arrb2-/- beta cells; assay type: cell-based, mouse
# [14] = Danish registry cohort, hypoglycaemic episodes leading to hospitalisation; assay type: in vivo, human
# [15] = EXPECT trial, pregnant women with type 1 diabetes; assay type: in vivo, human; details: degludec once daily or detemir 1-2 times daily, both with insulin aspart
# C57BL/6J mice = assay: Pparg splicing in epididymal adipose tissue of LPS-injected mice; assay type: in vivo, mouse; details: inflamed adipose tissue, n=6
molecule,measurement,setting,value
"O=S(=O)(O)c1cc(O)ccc1O [CaD, Calcium dobesilate]",Mean decrease of retinal thickness,[1],2.5 μm
"N[C@@H](CC(=O)N1CCn2c(nnc2C(F)(F)F)C1)Cc1cc(F)c(F)cc1F [DPP4, sitagliptin]",Beta cell glucose sensitivity,[2],75.9 (55.7 - 96.0) pmol min^-1 m^-2mM^-1
"OC[C@H]1O[C@@H](c2ccc(Cl)c(Cc3ccc(O[C@H]4CCOC4)cc3)c2)[C@H](O)[C@@H](O)[C@@H]1O [EMPA, empagliflozin]",Garcia score (neurological deficit),male Wistar rats,12.0 (9.5; 14.0) points
same,body weight and whole-body fat,HFD C57BL/6J mice,Lower
same,myocardial damage,HFD C57BL/6J mice,reduced
CCOc1ccc(Cc2cc([C@@H]3O[C@H](CO)[C@@H](O)[C@H](O)[C@H]3O)ccc2Cl)cc1 [dapagliflozin],Change in body weight at 3 years,[3],-1.0 ± 3.3 kg
same,Change in fasting plasma glucose at 3 years,[3],-47.4 ± 61.7 mg/dL
same,Average treatment effect on change in HbA1c compared to SU,[4],"-1.10 [-1.92, -0.27] mmol/mol"
same,Absolute risk reduction for the primary outcome,"UACR >3500 mg/g, 95%CI 3.0, 24.5",13.8%
same,Absolute risk reduction for the primary outcome,"UACR >1000 to ≤3500 mg/g, 95%CI 3.6, 10.1",6.9%
same,adverse events,[5],no adverse events
CCCCCCCCCCCCCCCC(=O)N[C@@H](CCC(=O)NCCCC[C@H](NC(=O)[C@H](C)NC(=O)[C@H](C)NC(=O)[C@H](CCC(N)=O)NC(=O)CNC(=O)[C@H](CCC(=O)O)NC(=O)[C@H](CC(C)C)NC(=O)[C@H](Cc1ccc(O)cc1)NC(=O)[C@H](CO)NC(=O)[C@H](CO)NC(=O)[C@@H](NC(=O)[C@H](CC(=O)O)NC(=O)[C@H](CO)NC(=O)[C@@H](NC(=O)[C@H](Cc1ccccc1)NC(=O)[C@@H](NC(=O)CNC(=O)[C@H](CCC(=O)O)NC(=O)[C@H](C)NC(=O)[C@@H](N)Cc1cnc[nH]1)[C@@H](C)O)[C@@H](C)O)C(C)C)C(=O)N[C@@H](CCC(=O)O)C(=O)N[C@@H](Cc1ccccc1)C(=O)N[C@H](C(=O)N[C@@H](C)C(=O)N[C@@H](Cc1c[nH]c2ccccc12)C(=O)N[C@@H](CC(C)C)C(=O)N[C@H](C(=O)N[C@@H](CCCNC(=N)N)C(=O)NCC(=O)N[C@@H](CCCNC(=N)N)C(=O)NCC(=O)O)C(C)C)[C@@H](C)CC)C(=O)O [liraglutide],Premature treatment discontinuations due to AEs,[6]; with SGLT-2i,7.2%
same,Premature treatment discontinuations due to AEs,[6]; without SGLT-2i,6.4%
same,Impairment of diastolic filling (e'),[7],10%
"CC[C@H](C)[C@H](NC(=O)[C@H](Cc1ccccc1)NC(=O)[C@H](CCC(=O)O)NC(=O)[C@H](CCCCNC(=O)COCCOCCNC(=O)COCCOCCNC(=O)CC[C@H](NC(=O)CCCCCCCCCCCCCCCCC(=O)O)C(=O)O)NC(=O)[C@H](C)NC(=O)[C@H](C)NC(=O)[C@H](CCC(N)=O)NC(=O)CNC(=O)[C@H](CCC(=O)O)NC(=O)[C@H](CC(C)C)NC(=O)[C@H](Cc1ccc(O)cc1)NC(=O)[C@H](CO)NC(=O)[C@H](CO)NC(=O)[C@@H](NC(=O)[C@H](CC(=O)O)NC(=O)[C@H](CO)NC(=O)[C@@H](NC(=O)[C@H](Cc1ccccc1)NC(=O)[C@@H](NC(=O)CNC(=O)[C@H](CCC(=O)O)NC(=O)C(C)(C)NC(=O)[C@@H](N)Cc1cnc[nH]1)[C@@H](C)O)[C@@H](C)O)C(C)C)C(=O)N[C@@H](C)C(=O)N[C@@H](Cc1c[nH]c2ccccc12)C(=O)N[C@@H](CC(C)C)C(=O)N[C@H](C(=O)N[C@@H](CCCNC(=N)N)C(=O)NCC(=O)N[C@@H](CCCNC(=N)N)C(=O)NCC(=O)O)C(C)C [oral semaglutide, semaglutide]",patients who stopped at least once due to an AE,[8],27%
Insulin icodec,"Overall hypoglycaemic episode duration, median (IQR)","[9]; titration A (4.4-7.2 mmol/L; ±21 U/week), CGM <3.9 mmol/L for at least 15 min","35.0 (20.0, 70.0) min"
same,"Overall hypoglycaemic episode duration, median (IQR)",[9]; titration B (4.4-7.2 mmol/L ±28 U/week),"35.0 (20.0, 70.0) min"
same,"Overall hypoglycaemic episode duration, median (IQR)",[9]; titration C (3.9-6.0 mmol/L ±28 U/week),"39.0 (24.0, 70.0) min"
same,"Overall hypoglycaemic episode duration, median (IQR)",[10]; with 100% loading dose,"40.0 (20.0, 75.0) min"
same,"Overall hypoglycaemic episode duration, median (IQR)",[10]; without loading dose,"40.0 (25.0, 80.0) min"
same,patients with >70% TIR and TBR<3.9 mmol/L <4%,[11],80.0%
TNFα,Increase of PpargΔ5/cPparg ratio,[12],2.5 fold
"glucose-dependent insulinotropic polypeptide (YAEGTFISDYSIAMDKIHQQDFVNWLLAQKGKKNDWKHNITQ; Gastric inhibitory polypeptide; UniProt P09681 52-93, looked up) [GIP]",Lowest effective concentration on PKA activation and insulin secretion,[13],≥ 1 nM
same,Reduction of insulin secretion in Arrb2-/- beta cells,Arrb2-/- beta cells,~ 50%
human insulin,HR for hypoglycaemic episodes leading to hospitalisation,[14]; combination human insulin,1.84
same,HR for hypoglycaemic episodes leading to hospitalisation,[14]; intermediate-acting human insulin,1.38
insulin detemir,Estimated mean HbA1c prior to delivery,[15],6.34%
lipopolysaccharides [LPS],Increase of PpargΔ5/cPparg ratio,C57BL/6J mice,3.5 fold
